The values below come from US7423054B2, “Therapeutic pyrazolo[3,4-b]pyridines and indazoles” (Warner Lambert Company LLC, priority 2004, dated 2008).

As a reminder, the Ki is the equilibrium dissociation constant of an inhibitor or competing ligand from its target.

Where a name gives a salt, the structure may show the parent alone.

In assay [1] the target is T1, human norepinephrine transporter (hNET) (Homo sapiens, UniProt P23975).
T1 construct: expressed in transfected cells; host or cells: HEK-293 cells (membrane preparation)
T1 sequence (P23975 whole entry): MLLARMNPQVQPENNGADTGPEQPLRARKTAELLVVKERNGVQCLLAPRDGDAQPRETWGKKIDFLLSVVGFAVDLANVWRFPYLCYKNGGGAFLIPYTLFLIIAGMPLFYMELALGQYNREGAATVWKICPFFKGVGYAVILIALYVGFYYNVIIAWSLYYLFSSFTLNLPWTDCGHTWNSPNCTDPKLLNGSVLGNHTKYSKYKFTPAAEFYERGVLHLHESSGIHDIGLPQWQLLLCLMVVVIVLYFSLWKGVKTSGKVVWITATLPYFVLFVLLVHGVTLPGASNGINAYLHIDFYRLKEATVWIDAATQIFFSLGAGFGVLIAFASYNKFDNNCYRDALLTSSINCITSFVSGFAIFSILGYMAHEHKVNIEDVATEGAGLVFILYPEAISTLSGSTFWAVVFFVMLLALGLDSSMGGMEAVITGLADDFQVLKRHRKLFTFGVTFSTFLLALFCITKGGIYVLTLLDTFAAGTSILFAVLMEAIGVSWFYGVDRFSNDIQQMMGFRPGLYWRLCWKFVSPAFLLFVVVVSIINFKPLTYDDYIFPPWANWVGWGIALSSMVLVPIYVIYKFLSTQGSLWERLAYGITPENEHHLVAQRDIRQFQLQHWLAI
Nature of the assay: hNET receptor binding ([125I]-RTI-55 displacement, membranes of transfected HEK-293 cells). The note with it: HEK-293 membranes, Ki from IC50 by Cheng-Prusoff, read-out: NET Ki. The source says:
(§1) The ability of the compounds of the present invention to inhibit a norepinephrine transporter and/or a serotonin transporter can be determined using conventional radioligand receptor transport assays. The receptors can be heterologously expressed in cell lines and experiments conducted in membrane preparations from the cell lines that express a norepinephrine transporter and/or a serotonin transporter.
Cell pastes of HEK-293 cells transfected with a human norepinephrine transporter cDNA were prepared. The cell pastes were resuspended in 400 to 700 ml of Krebs-HEPES assay buffer (25 mM HEPES, 122 mM NaCl, 3 mM KCl, 1.2 mM MgSO4, 1.3 mM CaCl2, and 11 mM glucose, pH 7.4) with a Polytron homogenizer at setting 7 for 30 seconds. Aliquots of membranes (5 mg/ml protein) were stored in liquid nitrogen until used.
The binding assay was set up in Beckman deep-well polypropylene plates with a total volume of 250 μl containing: test compound (10^−5M to 10^−12M), cell membranes, and 50 pM [^125I]-RTI-55 (Perkin Elmer, NEX-272; specific activity 2200 Ci/mmol). The reaction was incubated by gentle agitation for 90 minutes at room temperature and was terminated by filtration through Whatman GF/C filter plates using a Brandel 96-well plate harvester. Scintillation fluid (100 μl) was added to each well, and bound [^125I]-RTI-55 was determined using a Wallac Trilux Beta Plate Counter. Test compounds were run in duplicate, and specific binding was defined as the difference between binding in the presence and absence of 10 μM desipramine.
Excel and GraphPad Prism software were used for data calculation and analysis. IC50 values were converted to Ki values using the Cheng-Prusoff equation. The Ki values (nM) for the hNET are reported below in Table 11.

For assay [2], the target named is T2, human serotonin transporter (hSERT) (Homo sapiens, UniProt P31645).
T2 construct: expressed in transfected cells; host or cells: HEK-293 cells (membrane preparation)
T2 sequence (P31645 whole entry): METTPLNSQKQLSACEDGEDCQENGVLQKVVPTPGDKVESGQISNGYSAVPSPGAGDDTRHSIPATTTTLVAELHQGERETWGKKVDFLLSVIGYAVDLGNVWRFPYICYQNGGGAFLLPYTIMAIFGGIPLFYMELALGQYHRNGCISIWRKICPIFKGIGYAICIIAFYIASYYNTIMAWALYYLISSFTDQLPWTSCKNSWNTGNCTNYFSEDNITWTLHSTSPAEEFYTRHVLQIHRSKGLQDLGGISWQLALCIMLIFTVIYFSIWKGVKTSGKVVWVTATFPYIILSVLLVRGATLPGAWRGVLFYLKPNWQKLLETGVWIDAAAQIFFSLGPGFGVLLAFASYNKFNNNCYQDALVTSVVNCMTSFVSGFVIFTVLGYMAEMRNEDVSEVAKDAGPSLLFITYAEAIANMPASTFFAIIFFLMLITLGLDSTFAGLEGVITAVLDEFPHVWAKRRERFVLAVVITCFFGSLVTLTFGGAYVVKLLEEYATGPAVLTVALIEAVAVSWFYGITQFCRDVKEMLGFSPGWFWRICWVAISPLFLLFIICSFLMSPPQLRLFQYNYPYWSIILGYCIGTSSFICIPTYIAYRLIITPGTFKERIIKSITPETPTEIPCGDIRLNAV
Nature of the assay: hSERT receptor binding ([125I]-RTI-55 displacement, membranes of transfected HEK-293 cells). The note with it: HEK-293 membranes, Ki from IC50 by Cheng-Prusoff, read-out: SERT Ki. The method, then: as §1
Cell pastes of HEK-293 cells transfected with a human serotonin transporter cDNA were prepared. The cell pastes were resuspended in 400 to 700 ml of Krebs-HEPES assay buffer (25 mM HEPES, 122 mM NaCl, 3 mM KCl, 1.2 mM MgSO4, 1.3 mM CaCl2, and 11 mM glucose, pH 7.4) with a Polytron homogenizer at Setting 7 for 30 seconds. Aliquots of membranes (˜2.5 mg/ml protein) were stored in liquid nitrogen until used.
Assays were set up in FlashPlates pre-coated with 0.1% PEI in a total volume of 250 μl containing: test compound (10^−5M to 10^−12M), cell membranes, and 50 pM [^125I]-RTI-55 (Perkin Elmer, NEX-272; specific activity 2200 Ci/mmol). The reaction was incubated and gently agitated for 90 minutes at room temperature, and terminated by removal of assay volume. Plates were covered, and bound [^125I]-RTI-55 was determined using a Wallac Trilux Beta Plate Counter. Test compounds were run in duplicate, and specific binding was defined as the difference between binding in the presence and absence of 10 μM citalopram.
Excel and GraphPad Prism software were used for data calculation and analysis. IC50 values were converted to Ki values using the Cheng-Prusoff equation. The Ki values (nM) for the hSERT are reported below in Table 11: […]

In the case of `c1ccc(-n2nc(OC3CCCNC3)c3ccccc32)cc1` (racemic) [Example 15, (±)-1-Phenyl-3-(piperidin-3-yloxy)-1H-indazole hydrochloride], the results for the Ki in assay [1] and in assay [2] were 329 nM and 1460 nM, respectively.
Regarding `c1ccc(-n2nc(OCC3CCCNC3)c3ccccc32)cc1` (racemic) [Example 16, (±)-1-Phenyl-3-(piperidin-3-ylmethoxy)-1H-indazole hydrochloride], the figures for the Ki in assay [1] and in assay [2] were 21.5 nM and 224 nM, respectively.
For `c1ccc(-n2nc(OCC3CCNCC3)c3ccccc32)cc1` (racemic) [Example 17, (±)-1-Phenyl-3-(piperidin-4-ylmethoxy)-1H-indazole hydrochloride], in that order: 151 nM and 28 nM.
`Fc1cccc(-n2nc(OCC3CCCNC3)c3ccccc32)c1` (racemic) [Example 66, (±)-1-(3-Fluoro-phenyl)-3-(piperidin-3-ylmethoxy)-1H-indazole hydrochloride]: the Ki was 16.9 nM in assay [1] and 120 nM in assay [2].
For `Fc1ccc(-n2nc(OCC3CCCNC3)c3ccccc32)cc1` (racemic) [Example 67, (±)-1-(4-Fluoro-phenyl)-3-(piperidin-3-ylmethoxy)-1H-indazole hydrochloride], in that order: 19.7 nM and 191 nM.
In the case of `Clc1ccc(-n2nc(OCC3CCCNC3)c3ccccc32)cc1` (racemic) [Example 68, (±)-1-(4-Chloro-phenyl)-3-(piperidin-3-ylmethoxy)-1H-indazole hydrochloride], the Ki in assay [1] was found to be 219 nM; in assay [2], 359 nM.
As for `Clc1ccc2c(c1)c(OCC1CCCNC1)nn2-c1ccccc1` (racemic) [Example 69, (±)-5-Chloro-1-phenyl-3-(piperidin-3-ylmethoxy)-1H-indazol hydrochloride], the inhibition constant (Ki) in assay [1] was determined as 98 nM; in assay [2], 339 nM.
As for `Fc1ccc2c(OCC3CCCNC3)nn(-c3ccccc3F)c2c1` (racemic) [Example 70, (±)-6-Fluoro-1-(2-fluoro-phenyl)-3-(piperidin-3-ylmethoxy)-1H-indazole hydrochloride], the inhibitory constant (Ki) in assay [1] came to 33.6 nM; in assay [2], 200 nM.
`Fc1ccc2c(c1)c(OCC1CCCNC1)nn2-c1ccc(F)c(F)c1` (racemic) [Example 96, (±)-1-(3,4-Difluoro-phenyl)-5-fluoro-3-(piperidin-3-ylmethoxy)-1H-indazole hydrochloride]: the values for the Ki in assay [1] and in assay [2] were 49.5 nM and 172 nM, respectively.
For `Fc1ccccc1-n1nc(OC[C@@H]2CNCCO2)c2ccccc21` [Example 2, (S)-(+)-1-(2-Fluorophenyl)-3-(morpholin-2-ylmethoxy)-1H-indazole maleate], in that order: 9.28 nM and 1620 nM.
Consider `Fc1ccc(-n2nc(OC[C@@H]3CNCCO3)c3ccccc32)c(F)c1` [Example 3, (S)-(+)-1-(2,4-Difluorophenyl)-3-(morpholin-2-ylmethoxy)-1H-indazole maleate], for which the Ki in assay [1] is 3.4 nM; in assay [2] it was 832 nM.
In the same order, the values of `Fc1ccccc1-n1nc(OCC2CCCNC2)c2ccccc21` (stereo not shown) [Example 4, 1-(2-Fluorophenyl)-3-(piperidin-3-ylmethoxy)-1H-indazole hydrochloride] are 3 nM and 270 nM.
In the same order, the values of `Fc1ccccc1-n1nc(OC[C@H]2CNCCO2)c2ccccc21` [Example 5, (R)-(−)-1-(2-Fluorophenyl)-3-(morpholin-2-ylmethoxy)-1H-indazole hydrochloride] are 84 nM and 1610 nM.
Consider `Fc1ccccc1-n1nc(OC[C@H]2CCCNC2)c2ccccc21` [Example 6, (S)-(−)-1-(2-Fluorophenyl)-3-(piperidin-3-ylmethoxy)-1H-indazole hydrochloride], for which the results for the inhibitory constant (Ki) in assay [1] and in assay [2] were 1.65 nM and 192 nM, respectively.
With `Fc1ccc(-n2nc(OC3CCNCC3)c3ccccc32)c(F)c1` [Example 10, 1-(2,4-Difluoro-phenyl)-3-(piperidin-4-yloxy)-1H-indazole hydrochloride], the values for the Ki in assay [1] and in assay [2] were 14.3 nM and 36.1 nM, respectively.
For the compound `Fc1ccccc1-n1nc(OC[C@@H]2CCNC2)c2ccccc21` [Example 11, (R)-1-(2-Fluoro-phenyl)-3-(pyrrolidin-3-ylmethoxy)-1H-indazole hydrochloride], the Ki in assay [1] worked out at 14 nM; in assay [2] it was 279 nM.
For `Fc1ccccc1-n1nc(O[C@H]2CCCN2)c2ccccc21` [Example 12, (S)-(−)-1-(2-Fluorophenyl)-3-(pyrrolidin-2-yloxy)-1H-indazole hydrochloride], in that order: 12.5 nM and 1010 nM.
As to `Fc1ccccc1-n1nc(O[C@@H]2CCCN2)c2ccccc21` [Example 13, (R)-(+)-1-(2-Fluorophenyl)-3-(pyrrolidin-2-yloxy)-1H-indazole maleate], the Ki in assay [1] came to 131 nM; in assay [2], 5290 nM.
For `c1ccc(-n2nc(OC[C@@H]3CCCNC3)c3ccccc32)cc1` [Example 18, (R)-(+)-1-Phenyl-3-(piperidin-3-ylmethoxy)-1H-indazole hydrochloride], in that order: 95.5 nM and 121 nM.
As for `c1ccc(-n2nc(OC[C@H]3CCCNC3)c3ccccc32)cc1` [Example 19, (S)-(−)-1-Phenyl-3-(piperidin-3-ylmethoxy)-1H-indazole hydrochloride], the Ki is 5.43 nM in assay [1] and 486 nM in assay [2].
For `c1ccc(-n2nc(OC[C@@H]3CNCCO3)c3ccccc32)cc1` [Example 21, (S)-(+)-3-(Morpholin-2-ylmethoxy)-1-phenyl-1H-indazole hydrochloride], in that order: 12.5 nM and 1120 nM.
In the same order, the values of `c1ccc(-n2nc(OC[C@H]3CCNC3)c3ccccc32)cc1` [Example 22, (S)-1-Phenyl-3-(pyrrolidin-3-ylmethoxy)-1H-indazole hydrochloride] are 25.7 nM and 68.2 nM.
Turning to `Fc1ccc(-n2nc(OC[C@@H]3CNCCO3)c3ccccc32)cc1F` [Example 23, (S)-1-(3,4-Difluoro-phenyl)-3-(morpholin-2-ylmethoxy)-1H-indazole hydrochloride], the inhibitory constant (Ki) was 11.5 nM in assay [1] and 1530 nM in assay [2].
For `Fc1cccc(F)c1-n1nc(OC[C@H]2CCCNC2)c2ccccc21` [Example 25, (S)-1-(2,6-Difluoro-phenyl)-3-(piperidin-3-ylmethoxy)-1H-indazole maleate], in that order: 3.2 nM and 670 nM.
For `Fc1ccc(F)c(-n2nc(OC[C@@H]3CNCCO3)c3cc(F)ccc32)c1` [Example 26, (S)-1-(2,5-Difluoro-phenyl)-5-fluoro-3-(morpholin-2-ylmethoxy)-1H-indazole maleate], in that order: 6.9 nM and 346 nM.
Regarding `Fc1ccc(F)c(-n2nc(OC[C@@H]3CNCCO3)c3ccccc32)c1` [Example 28, (S)-(+)-1-(2,5-Difluorophenyl)-3-(morpholin-2-ylmethoxy)-1H-indazole maleate], the Ki stood at 5.1 nM in assay [1] and 640 nM in assay [2].
In the same order, the values of `Clc1cc(Cl)cc(-n2nc(OC3CCNCC3)c3ccccc32)c1` [Example 29, 1-(3,5-Dichloro-phenyl)-3-(piperidin-4-yloxy)-1H-indazole hydrochloride] are 4050 nM and 342 nM.
In the same order, the values of `Fc1ccc(-n2nc(OC[C@H]3CCCNC3)c3ccccc32)cc1F` [Example 33, (S)-1-(3,4-Difluoro-phenyl)-3-(piperidin-3-ylmethoxy)-1H-indazole hydrochloride] are 19.2 nM and 198 nM.
For `Fc1ccc(-n2nc(OC3CCNCC3)c3ccccc32)cc1F` [Example 34, 1-(3,4-Difluoro-phenyl)-3-(piperidin-4-yloxy)-1H-indazole hydrochloride], in that order: 30 nM and 81 nM.
